The values below are quoted from earlier work in US12233147B2, “Method for treating keratin material” (Henkel AG & Co. KGaA, priority 2019, dated 2025).

For this data set the following is noted: 25° C.
On to `O=C([O-])C1=NN(c2ccc(S(=O)(=O)[O-])cc2)C(=O)C1N=Nc1ccc(S(=O)(=O)[O-])cc1.[Na+].[Na+].[Na+]` (stereo not shown) [Acid Yellow 23, trisodium salt of 4,5-dihydro-5-oxo-1-(4-sulfophenyl)-4-((4-sulfophenyl)azo)-1H-pyrazole-3-carboxylic acid], for which the “solubility in water” value is given as “highly soluble in water”.
Turning to `Nc1cc(S(=O)(=O)[O-])cc2cc(S(=O)(=O)[O-])c(N=Nc3ccccc3)c(O)c12.[Na+].[Na+]` [Acid Red 33, diantrium salt of 5-amino-4-hydroxy-3-(phenylazo)-naphthalene-2,7-disulphonate], the solubility in water was 2500 µg/mL.
Consider `O=C([O-])c1c(Cl)c(Cl)c(Cl)c(Cl)c1-c1c2c(Br)cc(=O)c(Br)c-2oc2c(Br)c(O)cc(Br)c12.O=C([O-])c1c(Cl)c(Cl)c(Cl)c(Cl)c1-c1c2c(Br)cc(=O)c(Br)c-2oc2c(Br)c(O)cc(Br)c12.[Na+].[Na+]` [Acid Red 92, disodium salt of 3,4,5,6-tetrachloro-2-(1,4,5,8-tetrabromo-6-hydroxy-3-oxoxanthen-9-yl)benzoic acid], for which the solubility in water entry is listed as “greater than 10 g/L”.
Consider `O=S(=O)([O-])c1ccc(N=Nc2c(O)ccc3ccccc23)cc1.[Na+]` [Acid Orange 7, sodium salt of 4-[(2-hydroxy-1-naphthyl)azo]benzene sulphonate], for which the solubility in water entry was “more than 7 g/L”.
